In PMC11997503, “A BPTF-specific PROTAC degrader enhances NK cell-based cancer immunotherapy” (Molecular Therapy, 2025):

Legend:
[1] = molecular target: T1, BRD9 (Homo sapiens, UniProt Q9H8M2); assay: SPR (Biacore T200, NiHC1500M chip); format: binding
T1 construct: bromodomain
T1 sequence (Q9H8M2 134-240 limits assumed): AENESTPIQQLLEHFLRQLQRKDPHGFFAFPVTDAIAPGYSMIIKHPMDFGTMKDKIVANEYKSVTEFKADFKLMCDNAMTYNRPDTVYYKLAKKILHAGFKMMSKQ

[2] = molecular target: T2, CRBN (Homo sapiens, UniProt Q96SW2); assay: co-IP of BPTF with CRBN in 8d-treated Huh7 cells; pomalidomide rescue; N-methyl glutarimide control […] inactive; format: cell-based
T2 construct: with BPTF

[3] = molecular target: T3, BPTF (Homo sapiens, UniProt Q12830); assay: SPR (Biacore T200, NiHC1500M chip); format: binding
T3 construct: bromodomain

[4] = molecular target: T4, CECR2 (Homo sapiens, UniProt Q9BXF3); assay: SPR positive control (Figure S7D); format: binding
T4 construct: bromodomain
T4 sequence (Q9BXF3 434-538 limits assumed): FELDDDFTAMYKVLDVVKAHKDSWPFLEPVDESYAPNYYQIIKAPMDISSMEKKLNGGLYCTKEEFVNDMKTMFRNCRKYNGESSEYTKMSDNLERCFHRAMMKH

T2 sequence (Q96SW2 whole entry, other chains not shown): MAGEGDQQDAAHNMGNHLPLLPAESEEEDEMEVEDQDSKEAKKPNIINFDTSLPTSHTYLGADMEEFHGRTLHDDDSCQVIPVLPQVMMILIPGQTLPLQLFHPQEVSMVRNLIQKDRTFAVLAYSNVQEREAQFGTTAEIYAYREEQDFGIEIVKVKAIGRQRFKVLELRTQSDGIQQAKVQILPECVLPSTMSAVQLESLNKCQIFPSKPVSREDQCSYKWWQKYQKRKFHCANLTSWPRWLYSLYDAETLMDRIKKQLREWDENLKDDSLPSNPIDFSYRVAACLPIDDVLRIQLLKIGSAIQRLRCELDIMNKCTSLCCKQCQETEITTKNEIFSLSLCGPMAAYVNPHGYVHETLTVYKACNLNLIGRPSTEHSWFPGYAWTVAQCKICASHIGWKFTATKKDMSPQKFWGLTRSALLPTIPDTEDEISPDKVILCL

CS(=O)(=O)c1nc(NCCCn2cccn2)cc(-c2ccc(NCc3cn(CCOCCOCCOCCOCCOCCNc4cccc5c4C(=O)N(C4CCC(=O)NC4=O)C5=O)nn3)cc2)n1 (stereo not shown) [8d, 4-((17-(4-(((4-(6-((3-(1H-pyrazol-1-yl)propyl)amino)-2-(methylsulfonyl)pyrimidin-4-yl)phenyl)amino)methyl)-1H-1,2,3-triazol-1-yl)-3,6,9,12,15 pentaoxaheptadecyl)amino)-2-(2,6-dioxopiperidin-3-yl) isoindoline-1,3-dione]
Kd [1]: 28.8 µM
co-IP of BPTF with CRBN in 8d-treated Huh7 cells; pomalidomide rescue; N-methyl [2]: through direct recruitment of CRBN, 8d facilitates the proteasome-dependent selective degradation of BPTF
Kd [3]: 0.563 µM

CN(C)CCCOc1ccc(-c2cc(NCCCn3cccn3)nc(S(C)(=O)=O)n2)cc1 [TP238]
CECR2 bromodomain binding affinity [4]: minimal affinity for the CECR2 bromodomain (Figure S7D), which is known to strongly bind to TP238 as a positive control
